Test results: patent EP0011828A1, “Pharmaceutical combinations including hydantoin derivatives, pharmaceutical formulations containing the combinations and methods of making the formulations” (THE WELLCOME FOUNDATION LIMITED, priority 1978, dated 1980)
“Also recorded” adds a separate entry of the source.

Columns and labels:
platelet aggregation = assay: Inhibition of platelet aggregation (general statement); type: cell-based
[1] = system: rabbit platelet-rich plasma (PRP); assay: Arachidonic acid-induced aggregation in rabbit platelet-rich plasma, Born-type aggregometer; type: cell-based
Protocol: (§1) Aggregation was induced in rabbit platelet-rich plasma (PRP) by addition of arachidonic acid, and monitored in a Born-type aggregometer. A dose of dipyridamole was selected which caused no inhibition of aggregation when added to the PRP 2 minutes prior to the addition of arachidonic acid. The active compound when added to the PRP 1 minute prior to the addition of arachidonic acid caused a dose-related inhibition of aggregation. The percentage inhibition caused by the active compound was compared in the presence and absence of the selected dose of dipyridamole.

human PRP [2] = assay: ADP-induced aggregation of human PRP, potentiation by theophylline; type: cell-based
Protocol: [The source words this procedure for another species and says it was used here with some conditions changed.] as §1
The experiment of Example 12 was repeated using theophylline, another inhibitor of phosphodiesterase, in place of the dipyridamole. […]

[3] = system: histamine-induced broncho-constriction; conditions: cited from earlier work
[4] = system: aspirin- induced gastric lesions; conditions: rats; cited from earlier work
[5] = system: pentagastrin-induced gastric acid secretion; conditions: rat, in vivo; cited from earlier work
human PRP [6] = assay: Platelet aggregation in human PRP, potentiation by dipyridamole; type: cell-based; conditions: dipyridamole combined with 5-(6-carboxyhexyl)-1-(3-hydroxy-3-cyclohexylpropyl)hydantoin

O=C(O)CCCC=CCC1C(=O)NC(=O)N1CCC(O)C1CCCCC1 (stereo not shown) [5-(6-carboxyhex-2-enyl)-1-(3-hydroxy-3-cyclohexylpropyl)hydantoin]
inhibitors of platelet aggregation (activity in words) (platelet aggregation): especially active

O=C(O)CCCCCCC1C(=O)NC(=O)N1CCC(O)C1CCCCC1 (stereo not shown) [5-(6-carboxyhexyl)-1-(3-hydroxy-3-cyclohexylpropyl)hydantoin]
inhibition at 0.05 µg/mL ([1]; Oryctolagus cuniculus, active compound 50 ng/ml alone, added 1 minute before arachidonic acid, read-out: Percentage Inhibition): 37%
inhibition at 0.075 µg/mL ([1]; Oryctolagus cuniculus, active compound 75 ng/ml alone, read-out: Percentage Inhibition): 66%
inhibition at 0.1 µg/mL ([1]; Oryctolagus cuniculus, active compound 100 ng/ml alone, read-out: Percentage Inhibition): 100%
Percentage Inhibition ([1]; active compound 50 ng/ml with Dipyridamole 50 µg/ml): 77
inhibition of rabbit platelet aggregation (potency in words) ([1]; rabbit platelets, active compound alone): not a particularly potent inhibiton of rabbit platelet aggregation
inhibitors of platelet aggregation (activity in words) (platelet aggregation): especially active
inhibition at 0.0005 µg/mL (human PRP [2]; Homo sapiens, active compound 0.5 ng/ml alone, read-out: Percentage Inhibition): 19%
inhibition at 0.001 µg/mL (human PRP [2]; Homo sapiens, active compound 1 ng/ml alone, read-out: Percentage Inhibition): 55%
Percentage Inhibition (human PRP [2]; active compound 0.5 ng/ml with Theophylline 20 µg/ml): 51
Percentage Inhibition (human PRP [2]; active compound 1 ng/ml with Theophylline 20 µg/ml): 70

CCCCC(C)(C)C(O)CCN1C(=O)NC(=O)C1CCCCCCC(=O)O (stereo not shown) [5-(6-carboxyhexyl)-1-(3-hydroxy-4,4-dimethyloctyl) hydantoin]
antagonism of histamine-induced broncho-constriction [3]: antagonises histamine-induced broncho-constriction

CCCCCC(=O)CCN1C(=O)NC(=O)C1CCCCCCC(=O)O (stereo not shown) [5-(6-carboxyhexyl)-1-(3-oxo-octyl)hydantoin]
formation of aspirin-induced gastric lesions [4]: reduces the formation of aspirin- induced gastric lesions in rats
inhibition of pentagastrin-induced gastric acid secretion [5]: inhibits pentagastrin-induced gastric acid secretion

O=C(O)CCCCCCC1C(=O)NC(=O)N1CCCCOc1ccccc1 (stereo not shown) [5-(6-carboxyhexyl)-1-(4-phenoxybutyl) hydantoin]
formation of aspirin-induced gastric lesions [4]: reduces the formation of aspirin- induced gastric lesions in rats
inhibition of pentagastrin-induced gastric acid secretion [5]: inhibits pentagastrin-induced gastric acid secretion

CCCCCC(=O)CCN1C(=O)N(C)C(=O)C1CCCCCCC(=O)O (stereo not shown) [5-(6-carboxyhexyl)-3-methyl-1-(3-oxo-octyl)hydantoin]
formation of aspirin-induced gastric lesions [4]: reduces the formation of aspirin- induced gastric lesions in rats
inhibition of pentagastrin-induced gastric acid secretion [5]: inhibits pentagastrin-induced gastric acid secretion

CCCCCC(O)CCN1C(=O)NC(=O)C1CCCCCCC(=O)O (stereo not shown) [5-(6-carlJoxy-hexyl)-1-(3-hydroxyoctyl)-hydantoin]
formation of aspirin-induced gastric lesions [4]: reduces the formation of aspirin- induced gastric lesions in rats
inhibition of pentagastrin-induced gastric acid secretion [5]: inhibits pentagastrin-induced gastric acid secretion

OCCN(CCO)c1nc(N2CCCCC2)c2nc(N(CCO)CCO)nc(N3CCCCC3)c2n1 [Dipyridamole, 2,2', 2",2'"-(4,8-dipiperidinopy-rimido [5,4-d]pyrimidine-2,6-diyldinitrilo)tetraethanol, reference compound]
inhibition at 50 µg/mL ([1]; Oryctolagus cuniculus, Dipyridamole 50 µg/ml alone, added 2 minutes before arachidonic acid, read-out: Percentage Inhibition): 0%
potentiation of the inhibitory activity of the active compound on platelet aggregation ([1]; dipyridamole combined with 5-(6-carboxyhexyl)-1-(3-hydroxy-3-cyclohexylpropyl)hydantoin, rabbit PRP): inhibitory effect of a dose of the active compound in the presence of dipyridamole is approximately equivalent to that caused by twice that dose of the active compound alone; also recorded: produced a potentiation of the anti-aggrcgatory effect of the active compound
potentiation of the anti-aggregatory effect of the active compound (human PRP [6]): a similar potentiation was observed; also recorded: produced a potentiation of the anti-aggrcgatory effect of the active compound

Cn1c(=O)c2[nH]cnc2n(C)c1=O [Theophylline, 3,7-dihydro-1,3-dimethyl-1H-purine-2,6-dione, reference compound]
inhibition at 20 µg/mL (human PRP [2]; Homo sapiens, Theophylline 20 µg/ml alone, read-out: Percentage Inhibition): 7%
potentiation of the inhibitory effect of the active compound on ADP - induced aggregation (human PRP [2]; theophylline combined with 5-(6-carboxyhexyl)-1-(3-hydroxy-3-cyclohexylpropyl)hydantoin, human PRP): found to potentiate the inhibitory effect
